Assay results: patent US5382572A, “Alkyl and acyl substituted quinolines” (Schering Corporation, priority 1993, dated 1995)
Like-named read-outs stand apart in the source and are kept apart here.

Assays:
HSV-2 (strain MS) = test: HSV-β-gal assay: transient expression of beta-galactosidase in transfected HeLa cells superinfected with HSV-2; format: cell-based; conditions: Human alphaherpesvirus 2, HeLa, 24 h, inhibition of beta-galactosidase expression, MOI 5 pfu/cell, read-out: ANTI-HSV ACTIVITY HSV-β-GAL ASSAY IC50
Description: HeLa and Vero cell cultures were maintained in Eagle's Minimal Essential Medium (EMEM) which was supplemented with glutamine, penicillin, streptomycin and 10% fetal calf serum (10% EMEM). Stock cultures of HSV-2 (strain MS available from ATCC VR-540) were grown in and harvested from Vero cells. Viral stocks were titered in Vero cells according to established procedures.
Plasmid pON 245^ori- contains the promoter of the HSV-1 thymidine kinase (tk) gene located immediately 5' of the E. coli lac Z gene. In this arrangement, the tk promoter controls transcription from the bacterial gene in transient expression assays. Additionally, an SV40 polyadenylation signal is present at the 3'-end of the lac Z gene to allow for the efficient translation of the mRNA in eucaryotic cells. The expression of beta-galactosidase in a transient assay using pON 245^ori- is dependent upon superinfection of the transfected cells with HSV. […] For example, see European Patent Application No. 8302149.5 filed Mar. 11, 1988 and published Sep. 14th 1988 as 282,330, the disclosure of which is incorporated herein by reference thereto.
HeLa cells were seeded into 96 well microtiter plates and allowed to grow to 80% confluency (approximately 35000 cells/well). One half microgram of plasmid pON 245^ori- DNA was introduced into the cells of each well by the […] precipitation technique (Grahman and Van der Eb, 1973). Four to six hours later, the cells were rinsed with Hank's Balanced Salt Solution (HBSS), overlaid with 10% EMEM and incubated at 37° C. At 24 hour post-transfection, cells were rinsed, overlaid with 10% EMEM again and re-incubated at 37° C. At 48 hours. post-transfection, cells were rinsed and overlaid with either EMEM containing 2% fetal calf serum (2% EMEM), 2% EM EM containing HSV-2 (strain MS, Multiplicity of Infection [moil =5 pfu/cell) or 2% EMEM containing HSV-2 and the appropriate concentration of the compound to be tested. Twenty-four hours later, the cells were harvested and assayed for beta-galactosidase activity as described below.
All determinations of beta-galactosidase activity were performed in 96 well microtiter plates. The intracellular level of beta-galactosidase activity in each well was determined from cell lysates of the monolayer cultures. Aliquots were assayed by incubation in the presence of beta-galactosiclasesubstrate, 4-methyl-umbelliferyl-β-D-galactoside (MUG, 125 μg/ml, Sigma), for 2 hour. The generation of fluorescent product was quantified on a Microfluor microfluorimeter (Dynatech) after addition of 0.1M glycine, pH 10.3 (Spaete and Mocarski, 1985). The inhibitory activity of a compound was plotted versus the concentration and an IC50 value (the concentration of compound required to reduce beta-galactosidase expression by 50%) was obtained for each compound tested.
Anti-HSV activity refers to the IC50 values in the HSV-β-gal assay which measures anti-viral activity in terms of inhibition of beta-galactosidase expression. The IC50 values refer to the concentration of the compound in micrograms/milliliter needed to reduce beta-galactosidase expression by 50%.

[1] = Compound toxicity assay: 3H-leucine incorporation (translational activity) in HeLa cells; format: cell-based; conditions: human, reduction of leucine incorporation, read-out: CYTOTOXICITY 3H-LEU ASSAY IC50
Description: HeLa cells were treated with inhibitory compound for 24 hours, after which levels of translational activity were assayed.
For assay of translational activity, HeLa cultures were grown to 80% confluency in 96 well microtiter plates, treated with appropriate concentrations of compound in 2% EMEM during an overnight incubation at 37° C., then rinsed with HBSS and overlaid with […] of 2% EMEM containing 8 μCi of tritiated leucine (141 Cμ/mMol, Amersham Corp., Arlington Heights Ill.). After a 1 hour incubation at 36.5° C., the cells were rinsed twice with phosphate buffered saline (PBS) and lysed in 400 μl/well of 1×PBS, 0.5% sodium dodecyl sulphate (SDS). After a 10 min incubation at 36.5° C., the contents of the well were transferred to a well in a Millititer HA microfiltration plate (Millipore Corp., Bedford, Mass.). The TCA-insoluble proteins were precipitated onto the filter disc by a 10-minute-fixation with 5% TCA, followed by filtration under vacuum and three 10-minute-rinses with 95% ethanol. The filters were dried at room temperature, cut from the millititer plate and transferred to scintillation vials. TCA precipitable counts were assayed in 5 ml of Scintisol (Isolab, Akron, Ohio). The inhibitory activity of a compound was plotted versus the concentration and an IC50 value (that concentration of the compound required to decrease cellular translational activity by 50%) was derived for each compound.
Cytotoxicity refers to the IC50 values in the 3H-leucine (3H-Leu) incorporation. The IC50 values in this test refer to the concentration of the compound in micrograms/milliliter which reduces leucine incorporation by 50%.

HSV-2 = conditions: cell culture; Haines et al., U.S. Pat. No. 4,757,088; cited from earlier work
HSV-1 = conditions: cell culture; Haines et al., U.S. Pat. No. 4,757,088; cited from earlier work
herpes virus infections = conditions: mammals; Haines et al.; cited from earlier work
[2] = system: HSV oral and genital lesions; conditions: humans; Haines et al.; cited from earlier work
HSV-2, strain MS = test: Prophylactic guinea pig model of HSV-2 infection; format: in vivo; conditions: test compounds 60 mg/kg s.c., T.I.D., 10 days, from 24 hours before infection
Description: The in vive assessment of anti-HSV efficacy was determined in the prophylactic guinea pig model of HSV infection described by Stansberry et al (1982). Dosing of guinea pigs comprised an initial treatment with test compound given 24 hours prior to virus infection and subsequent administration of the compound every eight hours (T.I.D.) for a total of 10 days. Test compounds were administered subcutaneously in 0.5% buffered methyl celluslose at a dose of 60 mg per kg body weight of the animal. Animals were monitored daily for the development of genital lesions and neurological symptomology, both of which were recorded and compared to the results obtained with parallel groups which received placebo or acyclovir treatment. Efficacy was evaluated for each compound by scoring the ability of the compound to ameliorate genital lesions produced by infection with HSV-2, strain MS, expressed as Maximum Lesion Scores (MLS) on a scale of 1 (least lesion) to 4 (severe lesions).

[3] = system: antiviral activity of lidocaine or lidocaine hydrochloride; conditions: added to lidocaine or lidocaine hydrochloride; Haines et al.; cited from earlier work

CCCCCCCn1c(=O)c(C(OC(C)=O)OC(C)=O)c(OC(C)=O)c2ccccc21 [Formula 1.11]
IC50 (HSV-2 (strain MS); *Repeat): 10 µg/mL | IC50 (HSV-2 (strain MS); first value): 8 µg/mL | CC50 at 24 h ([1]; *Repeat): 43 µg/mL | CC50 at 24 h ([1]; first value): 25 µg/mL

CCCCC(=O)Oc1c(C(OC(=O)CCCC)OC(=O)CCCC)c(=O)n(C)c2ccccc12 [Formula 1.8]
IC50 (HSV-2 (strain MS); *Repeat): 4 µg/mL | IC50 (HSV-2 (strain MS); first value): 5 µg/mL | CC50 at 24 h ([1]; *Repeat): > 10 µg/mL | CC50 at 24 h ([1]; first value): 30 µg/mL

CCCCCCn1c(=O)c(C(OC(C)=O)OC(C)=O)c(OC)c2ccccc21 [Formula 1.1]
IC50 (HSV-2 (strain MS); first value): 1.4 µg/mL | CC50 at 24 h ([1]; first value): 6 µg/mL

CC(=O)Oc1c(C(OC(C)=O)OC(C)=O)c(=O)n(-c2ccccc2)c2ccccc12 [Formula 1.7]
IC50 (HSV-2 (strain MS); *Repeat): 4 µg/mL | IC50 (HSV-2 (strain MS); first value): 4 µg/mL | CC50 at 24 h ([1]; *Repeat): 18 µg/mL | CC50 at 24 h ([1]; first value): 20 µg/mL

CCCCCCn1c(=O)c(C(OC(C)=O)OC(C)=O)c(OC)c2cc(C)ccc21 [Formula 1.4]
IC50 (HSV-2 (strain MS); first value): 3 µg/mL | CC50 at 24 h ([1]; first value): 2.5 µg/mL

CCN(CC)CC(=O)Nc1c(C)cccc1C [lidocaine, 2-(diethylamino)-N-(2,6-dimethylphenyl)acetamide]
antiviral activity against HSV-2 (HSV-2): is an antiviral agent in cell culture against HSV-1 and HSV-2 | antiviral activity against HSV-1 (HSV-1): is an antiviral agent in cell culture against HSV-1 and HSV-2 | treatment of herpes virus infections (herpes virus infections): is able to treat herpes virus infections of mammals | treatment of HSV oral and genital lesions [2]: particularly effective in the treatment of HSV oral and genital lesions in humans

CCCCCCn1c(=O)c(C(OC(C)=O)OC(C)=O)c(OC(C)=O)c2cc(C)ccc21 [Formula 1.9]
MLS (Maximum Lesion Scores) (HSV-2, strain MS; scale of 1 (least) to 4 (severe), placebo 3): 2.5 | NEUROLOGICAL DYSFUNCTIONS (percentage animals developing loss of bladder/hindlimb control) (HSV-2, strain MS; placebo 87): 75% | IC50 (HSV-2 (strain MS); *Repeat): 8 µg/mL | IC50 (HSV-2 (strain MS); first value): 6 µg/mL | CC50 at 24 h ([1]; *Repeat): 37 µg/mL | CC50 at 24 h ([1]; first value): 32 µg/mL

CC(C)(CO)[C@@H](O)C(=O)NCCC(=O)O [pantothenic acid]
enhancement of antiviral activity of lidocaine or lidocaine hydrochloride [3]: significantly enhances the antiviral activity

COc1c(C(OC(C)=O)OC(C)=O)c(=O)n(C)c2ccccc12 [Formula 1.13]
IC50 (HSV-2 (strain MS); first value): 8 µg/mL | CC50 at 24 h ([1]; first value): 18 µg/mL

C=CCOC(=O)Cn1c(=O)c(C(OC(C)=O)OC(C)=O)c(OC(C)=O)c2ccccc21 [Formula 1.16]
IC50 (HSV-2 (strain MS); first value): 10 µg/mL | CC50 at 24 h ([1]; first value): 43 µg/mL
